Results reported in BindingDB's records for patent US20250034135 (Hangzhou Healzen Therapeutics Co., 2025).

Key:
[1] = biological target: Apoptosis regulator Bcl-2 (Homo sapiens, UniProt P10415); test: Molecular Level Activity Test of Anti-Apoptotic Protein BCL2
Protocol: (§1) The detection of the binding ability between anti-apoptotic protein BCL2 and pro-apoptotic protein Bim was performed using Homogeneous Time-Resolved Fluorescence technology. The reaction of this method occurred in a white shallow 384-well plate, with a total reaction volume of 10 μL. Specifically, it included 2 μL of the compound to be tested (2% DMSO), 4 μL His-tagged recombinant protein, and 4 μL Biotin-tagged BIM protein peptide. After 1 hour of reaction, 5 μL of each Anti-His and streptavidin-tagged XL665 antibody diluents diluted with a detection buffer were added. After incubating at room temperature for 4 hours, the values were read using the Envision multifunctional microplate reader to detect the effect of the compound to be tested on the binding ability of BCL2 to Bim protein peptides. The Envision parameter settings were exciting light at 320 nm, and emitting light at 615 nm and 665 nm. The binding ability of anti-apoptotic proteins to Bim protein peptides was indirectly reflected by the signal ratio of 665 nm and 615 nm. In the reaction, background wells without BCL2 and active wells for full binding of recombinant proteins without compounds and Bim protein peptides were set up.

[2] = biological target: Apoptosis regulator Bcl-2 [G101V] (Homo sapiens, UniProt P10415, G101V); test: Molecular Level Activity Test of Anti-Apoptotic Protein BCL2 (G101V)
Protocol: as §1, with “protein BCL2 (G101V) and pro-apoptotic” for “protein BCL2 and pro-apoptotic”, “reaction, 5 L of each” for “reaction, 5 μL of each”, “of BCL2 (G101V) to BIM” for “of BCL2 to Bim”, “(G101V) to BIM protein peptides.” for “BCL2 to Bim protein peptides.”

[3] = biological target: Isoform Bcl-X(L) of Bcl-2-like protein 1 (Bcl-xL) (Homo sapiens, UniProt Q07817); test: BCL-XL Enzyme Molecular Level Activity Test
Protocol: as §1, with “In a white” for “The detection of the binding ability between anti-apoptotic protein BCL2 and pro-apoptotic protein Bim was performed using Homogeneous Time-Resolved Fluorescence technology. The reaction of this method occurred in a white”, “384-well plate, a total” for “384-well plate, with a total”, “reaction volume was 10 μL.” for “reaction volume of 10 μL.”, “DMSO), […] His-tagged recombinant” for “DMSO), 4 μL His-tagged recombinant”, “ability of BCL-XL to BIM” for “ability of BCL2 to Bim”, “BCL-XL to BIM protein peptides.” for “BCL2 to Bim protein peptides.”

CYP3A4 = CYP3A4 (Homo sapiens, UniProt P08684); test: CYP3A4 Enzyme Inhibitory Activity; settings: recombinant CYP3A4 (CYP450 BACULOSOMES Plus reagent), probe Vivid substrate (Vivid CYP3A4 Green kit)
Chain of CYP3A4 (P08684 whole entry): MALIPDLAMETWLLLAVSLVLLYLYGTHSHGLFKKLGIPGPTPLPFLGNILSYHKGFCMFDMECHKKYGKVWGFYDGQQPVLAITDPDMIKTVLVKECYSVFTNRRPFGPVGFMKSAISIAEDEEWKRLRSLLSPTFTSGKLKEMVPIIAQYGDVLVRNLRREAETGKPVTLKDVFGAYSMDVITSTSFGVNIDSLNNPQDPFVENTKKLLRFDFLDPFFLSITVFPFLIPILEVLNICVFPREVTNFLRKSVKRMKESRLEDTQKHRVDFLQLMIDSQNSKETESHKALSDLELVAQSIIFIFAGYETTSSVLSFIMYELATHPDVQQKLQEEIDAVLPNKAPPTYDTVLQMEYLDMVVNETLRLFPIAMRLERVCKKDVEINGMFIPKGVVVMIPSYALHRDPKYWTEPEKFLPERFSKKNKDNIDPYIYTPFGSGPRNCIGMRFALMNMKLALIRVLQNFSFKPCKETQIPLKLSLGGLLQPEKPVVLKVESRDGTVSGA
Protocol: The inhibitory activity of compounds on human CYP3A4 enzyme was detected using a VIVID™ CYP3A4 GREEN SCRNING KIT reagent kit. The Vivid™ CYP450 screening kit includes a Vivid™ substrate, Vivid™ fluorescence standard, reaction buffer, Vivid™ regeneration system, NADP+ and CYP450 BACULOSOMES™ Plus reagent. Operations were performed following the instructions, and a blank control group was set up without adding any compounds.

Chain of Isoform Bcl-X(L) of Bcl-2-like protein 1 (Bcl-xL) (Q07817 whole entry G70A, canonical isoform): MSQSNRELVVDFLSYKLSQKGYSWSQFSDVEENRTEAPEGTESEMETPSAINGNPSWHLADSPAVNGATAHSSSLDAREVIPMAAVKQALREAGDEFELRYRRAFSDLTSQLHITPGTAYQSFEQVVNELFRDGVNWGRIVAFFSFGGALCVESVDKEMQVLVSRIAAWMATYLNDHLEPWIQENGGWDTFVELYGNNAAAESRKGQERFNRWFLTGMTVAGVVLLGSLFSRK

Work on `CC(C)c1ccccc1[C@@H]1CCCN1C1CC2(CCN(c3ccc(C(=O)NS(=O)(=O)c4cc([N+](=O)[O-])c(NCC5(F)CCN(C(C)C)CC5)c5c4ncn5C)c(Oc4cnc5[nH]ccc5c4)c3)CC2)C1` [US20250034135, Compound 008] yielded an IC50 [1] of under 0.01 µM.

In the case of `CC(C)c1ccccc1[C@@H]1CCCN1C1CC2(CCN(c3ccc(C(=O)NS(=O)(=O)c4cc([N+](=O)[O-])c(NCC5(F)CCN(C6COC6)CC5)c5[nH]cnc45)c(Oc4cnc5[nH]cc(F)c5c4)c3)CC2)C1` [US20250034135, Compound 012], the IC50 [1] is reported as under 0.01 µM.

`CC(C)c1ccccc1[C@@H]1CCCN1C1CC2(CCN(c3cc(Oc4cnc5[nH]ccc5c4)c(C(=O)NS(=O)(=O)c4cc([N+](=O)[O-])c(NCC5(F)CCN(C6COC6)CC5)c5[nH]cnc45)cc3F)CC2)C1` [US20250034135, Compound 020] gave an IC50 [1] of under 0.01 µM.

With `CC(C)c1ccccc1[C@@H]1CCCN1C1CC2(CCN(c3cc(Oc4cnc5[nH]ccc5c4)c(C(=O)NS(=O)(=O)c4cc([N+](=O)[O-])c(NCC5(F)CCN(C6COC6)CC5)c5c4ncn5C)cc3F)CC2)C1` [US20250034135, Compound 036] the IC50 [1] was under 0.01 µM.

With `CC(C)c1ccccc1[C@@H]1CCCN1C1CC2(CCN(c3cc(Oc4cnc5[nH]cc(F)c5c4)c(C(=O)NS(=O)(=O)c4cc([N+](=O)[O-])c(NCC5(F)CCN(C6COC6)CC5)c5[nH]cnc45)cc3F)CC2)C1` [US20250034135, Compound 038] the IC50 [1] was under 0.01 µM.

For `COc1ccc(CN2CCN(C3CC4(CCN(c5cc(Oc6cnc7[nH]ccc7c6)c(C(=O)NS(=O)(=O)c6ccc(NCC7(F)CCN(C8COC8)CC7)c([N+](=O)[O-])c6)cc5F)CC4)C3)C(c3ccccc3C(C)C)C2)cc1` (stereo unspecified) [US20250034135, Compound 057], the IC50 [1] was under 0.01 µM.

`COc1ccc(CN2CCN(C3CC4(C3)CN(c3cc(Oc5cnc6[nH]ccc6c5)c(C(=O)NS(=O)(=O)c5ccc(NCC6(F)CCN(C7COC7)CC6)c([N+](=O)[O-])c5)cc3F)C4)C(c3ccccc3C(C)C)C2)cc1` (stereo unspecified) [US20250034135, Compound 058] was tested, and the IC50 [2] was under 0.01 µM and the IC50 [3] was over 1 µM.

For `COc1ccccc1CN1CCN(C2CC3(CCN(c4cc(Oc5cnc6[nH]ccc6c5)c(C(=O)NS(=O)(=O)c5ccc(NCC6(F)CCOCC6)c([N+](=O)[O-])c5)cc4F)CC3)C2)[C@H](c2ccccc2C(C)C)C1` [US20250034135, Compound 185], the IC50 [1] was under 0.01 µM and the IC50 [3] was over 0.5 µM.

With `CC(C)c1ccccc1[C@@H]1CN(Cc2ccccc2F)CCN1C1CC2(CCN(c3cc(Oc4cnc5[nH]ccc5c4)c(C(=O)NS(=O)(=O)c4ccc(NCC5(F)CCOCC5)c([N+](=O)[O-])c4)cc3F)CC2)C1` [US20250034135, Compound 187] the IC50 [1] was under 0.01 µM and the IC50 [3] was over 0.5 µM.

Compound `CC(C)c1ccccc1[C@@H]1CN(Cc2ccc(F)cc2F)CCN1C1CC2(CCN(c3cc(Oc4cnc5[nH]ccc5c4)c(C(=O)NS(=O)(=O)c4ccc(NCC5(F)CCOCC5)c([N+](=O)[O-])c4)cc3F)CC2)C1` [US20250034135, Compound 191] has an IC50 [1] of under 0.01 µM.

`CC(C)c1ccccc1[C@@H]1CN(Cc2c(F)cccc2F)CCN1C1CC2(CCN(c3cc(Oc4cnc5[nH]ccc5c4)c(C(=O)NS(=O)(=O)c4ccc(NCC5(F)CCOCC5)c([N+](=O)[O-])c4)cc3F)CC2)C1` [US20250034135, Compound 192] was tested, and the IC50 [1] was under 0.01 µM.

`CC(C)c1ccccc1[C@@H]1CN(Cc2cnn(C)c2)CCN1C1CC2(CCN(c3cc(Oc4cnc5[nH]ccc5c4)c(C(=O)NS(=O)(=O)c4ccc(NC[C@H]5CC[C@](C)(O)CC5)c([N+](=O)[O-])c4)cc3F)CC2)C1` [US20250034135, Compound 238] showed an IC50 [3] of over 0.5 µM.

With `COc1ccc(CN2CCN(C3CC4(CCN(c5ccc(C(=O)NS(=O)(=O)c6ccc(NC[C@H]7CC[C@](C)(O)CC7)c([N+](=O)[O-])c6)c(OC(C=N)Cc6cc[nH]c6)c5)CC4)C3)[C@H](c3ccccc3C(C)C)C2)cc1` (stereo partly specified) [US20250034135, Compound a] the IC50 (CYP3A4) was 2.55 µM.
